From patent publication US20220389061A1, “IMMUNOMODULATORS” (priority 2019, published 2022)
Starred links: 1 amine or outer side, 2 acyl side, 3 side chain; linkers in the order of their positions; H or OH if unused. Positions of bridges follow the written chain, without caps; N, C: chain ends. Non-standard residues stand in square brackets, D forms with d. Residues, ends and D or L forms follow the SMILES beside them. Groups on a side chain read outwards from the residue. *: point of attachment. Trp(1-CH2COOH) = N[C@@H](Cc1cn(CC(=O)O)c2ccccc12)C(=O)O; X66 = O=C([C@H](CCN/C(=N/c1ccccc1)c1ccccc1)N[*:1])[*:2]; X57 = O=C([C@H](CN/C(=N/c1ccccc1)c1ccccc1)N[*:1])[*:2]; NH(3,5-Cl2-phenyl) = Clc1cc(Cl)cc(N*)c1; X31 = S=C(Nc1cccc2c(Cl)c[nH]c12)*; Hyp = O=C(O)[C@@H]1C[C@@H](O)CN1; X56 = COc1cc([N+](=O)[O-])ccc1N*; X27 = Cc1cc([N+](=O)[O-])ccc1N*; X28 = Cc1ccc(Cl)c(NC(=S)*)c1Cl; NMeNle = CCCC[C@H](NC)C(=O)O; X86 = CCOc1ccc(NC(=S)*)cc1; X6 = CCCCCCCOc1ccc(N*)cc1; NMeA = CN[C@@H](C)C(=O)O; Dab = NCC[C@H](N)C(=O)O; Dap = NC[C@H](N)C(=O)O; X46 = COc1ccc(Cl)cc1N*; X77 = Clc1cccc(N*)c1Cl; CO = O=C([*:1])[*:2]

target: T1, PD-1/PD-L1 (Homo sapiens, UniProt Q9NZQ7); experiment: PD-1/PD-L1 Homogenous Time-Resolved Fluorescence (HTRF) binding assay; conditions: not given
T1 construct: TVMV protease site linker (C); made in house; host or cells: HEK293T cells
Summary of the method: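 HTRF read-out using europium cryptate anti-Ig (1 nM) and APC anti-His (20 nM) on extracellular-domain fusion proteins in dPBS/0.1% BSA/0.05% Tween-20. Inhibitor first incubated 15 min with 10 nM PD-L1-His, followed by 20 nM PD-1-Ig for another 15 min.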

T1 sequence (Q9NZQ7 18-239): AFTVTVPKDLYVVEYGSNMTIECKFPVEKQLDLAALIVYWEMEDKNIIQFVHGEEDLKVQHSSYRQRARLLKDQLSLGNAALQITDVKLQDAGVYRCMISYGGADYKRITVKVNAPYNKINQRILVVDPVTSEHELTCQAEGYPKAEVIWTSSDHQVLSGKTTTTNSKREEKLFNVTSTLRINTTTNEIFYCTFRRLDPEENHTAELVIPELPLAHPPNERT

| Compound | IC50 [nM] |
| --- | --- |
| CCCC[C@H]1C(=O)N(C)[C@@H](CCCC)C(=O)N[C@@H](CC(C)C)C(=O)N[C@H](C(=O)NCC(N)=O)CSCC(=O)N[C@@H](Cc2ccc(O)cc2)C(=O)N(C)[C@@H](C)C(=O)N[C@@H](CC(N)=O)C(=O)N2CCC[C@H]2C(=O)N[C@@H](CNC(=O)Nc2cccc(Cl)c2Cl)C(=O)N[C@@H](CC(C)C)C(=O)N2C[C@H](O)C[C@H]2C(=O)N[C@@H](Cc2c[nH]c3ccccc23)C(=O)N[C@@H](CCN)C(=O)N[C@@H](Cc2cn(CC(=O)O)c3ccccc23)C(=O)N1C [Example 1071] ({CH2CO}-Y[NMeA]NP[Dap]([CO-X77])L[Hyp]W[Dab][Trp(1-CH2COOH)][NMeNle][NMeNle]LCG-NH2; thioether N-14) | 2.3 |
| CCCC[C@H]1C(=O)N(C)[C@@H](CCCC)C(=O)N[C@@H](CC(C)C)C(=O)N[C@H](C(=O)NCC(N)=O)CSCC(=O)N[C@@H](Cc2ccc(O)cc2)C(=O)N(C)[C@@H](C)C(=O)N[C@@H](CC(N)=O)C(=O)N2CCC[C@H]2C(=O)N[C@@H](CNC(=O)Nc2cc(Cl)cc(Cl)c2)C(=O)N[C@@H](CC(C)C)C(=O)N2C[C@H](O)C[C@H]2C(=O)N[C@@H](Cc2c[nH]c3ccccc23)C(=O)N[C@@H](CCN)C(=O)N[C@@H](Cc2cn(CC(=O)O)c3ccccc23)C(=O)N1C [Example 1068] ({CH2CO}-Y[NMeA]NP[Dap]([CO-NH(3,5-Cl2-phenyl)])L[Hyp]W[Dab][Trp(1-CH2COOH)][NMeNle][NMeNle]LCG-NH2; thioether N-14) | 4.3 |
| CCCC[C@H]1C(=O)N(C)[C@@H](CCCC)C(=O)N[C@@H](CC(C)C)C(=O)N[C@H](C(=O)NCC(N)=O)CSCC(=O)N[C@@H](Cc2ccc(O)cc2)C(=O)N(C)[C@@H](C)C(=O)N[C@@H](CC(N)=O)C(=O)N2CCC[C@H]2C(=O)N[C@@H](CNC(=O)Nc2ccc([N+](=O)[O-])cc2OC)C(=O)N[C@@H](CC(C)C)C(=O)N2C[C@H](O)C[C@H]2C(=O)N[C@@H](Cc2c[nH]c3ccccc23)C(=O)N[C@@H](CCNC(=O)Nc2ccc([N+](=O)[O-])cc2OC)C(=O)N[C@@H](Cc2cn(CC(=O)O)c3ccccc23)C(=O)N1C [Example 1076] ({CH2CO}-Y[NMeA]NP[Dap]([CO-X56])L[Hyp]W[Dab]([CO-X56])[Trp(1-CH2COOH)][NMeNle][NMeNle]LCG-NH2; thioether N-14) | 8.1 |

same assay, conditions: PD-L1-His 10 nM pre-incubated with inhibitor, PD-1-Ig 20 nM; read-out: HTRF IC50

| Compound | IC50 [nM] |
| --- | --- |
| CCCC[C@H]1C(=O)N(C)[C@@H](CCCC)C(=O)N[C@@H](CC(C)C)C(=O)N[C@H](C(=O)NCC(N)=O)CSCC(=O)N[C@@H](Cc2ccc(O)cc2)C(=O)N(C)[C@@H](C)C(=O)N[C@@H](CC(N)=O)C(=O)N2CCC[C@H]2C(=O)N[C@@H](CNC(=O)Nc2ccc([N+](=O)[O-])cc2C)C(=O)N[C@@H](CC(C)C)C(=O)N2C[C@H](O)C[C@H]2C(=O)N[C@@H](Cc2c[nH]c3ccccc23)C(=O)N[C@@H](CCN)C(=O)N[C@@H](Cc2cn(CC(=O)O)c3ccccc23)C(=O)N1C [Example 1133] ({CH2CO}-Y[NMeA]NP[Dap]([CO-X27])L[Hyp]W[Dab][Trp(1-CH2COOH)][NMeNle][NMeNle]LCG-NH2; thioether N-14) | 8.4 |
| CCCCCCCOc1ccc(NC(=O)NCC[C@@H]2NC(=O)[C@H](Cc3c[nH]c4ccccc34)NC(=O)[C@@H]3C[C@@H](O)CN3C(=O)[C@H](CC(C)C)NC(=O)[C@H](CNC(=O)Nc3ccc(OCCCCCCC)cc3)NC(=O)[C@@H]3CCCN3C(=O)[C@H](CC(N)=O)NC(=O)[C@H](C)N(C)C(=O)[C@H](Cc3ccc(O)cc3)NC(=O)CSC[C@@H](C(=O)NCC(N)=O)NC(=O)[C@H](CC(C)C)NC(=O)[C@H](CCCC)N(C)C(=O)[C@H](CCCC)N(C)C(=O)[C@H](Cc3cn(CC(=O)O)c4ccccc34)NC2=O)cc1 [Example 1090] ({CH2CO}-Y[NMeA]NP[Dap]([CO-X6])L[Hyp]W[Dab]([CO-X6])[Trp(1-CH2COOH)][NMeNle][NMeNle]LCG-NH2; thioether N-14) | 242 |

Continued, values first:

| IC50 [nM] | Compound |
| --- | --- |
| 6.3 | CCCC[C@H]1C(=O)N(C)[C@@H](CCCC)C(=O)N[C@@H](CC(C)C)C(=O)N[C@H](C(=O)NCC(N)=O)CSCC(=O)N[C@@H](Cc2ccc(O)cc2)C(=O)N(C)[C@@H](C)C(=O)N[C@@H](CC(N)=O)C(=O)N2CCC[C@H]2C(=O)N[C@@H](CNC(=O)Nc2cc(Cl)ccc2OC)C(=O)N[C@@H](CC(C)C)C(=O)N2C[C@H](O)C[C@H]2C(=O)N[C@@H](Cc2c[nH]c3ccccc23)C(=O)N[C@@H](CCN)C(=O)N[C@@H](Cc2cn(CC(=O)O)c3ccccc23)C(=O)N1C [Example 1074] ({CH2CO}-Y[NMeA]NP[Dap]([CO-X46])L[Hyp]W[Dab][Trp(1-CH2COOH)][NMeNle][NMeNle]LCG-NH2; thioether N-14) |
| 3.7 | CCCC[C@H]1C(=O)N(C)[C@@H](CCCC)C(=O)N[C@@H](CC(C)C)C(=O)N[C@H](C(=O)NCC(N)=O)CSCC(=O)N[C@@H](Cc2ccc(O)cc2)C(=O)N(C)[C@@H](C)C(=O)N[C@@H](CC(N)=O)C(=O)N2CCC[C@H]2C(=O)N[C@@H](CNC(=S)Nc2ccc(OCC)cc2)C(=O)N[C@@H](CC(C)C)C(=O)N2C[C@H](O)C[C@H]2C(=O)N[C@@H](Cc2c[nH]c3ccccc23)C(=O)N[C@@H](CCNC(=S)Nc2ccc(OCC)cc2)C(=O)N[C@@H](Cc2cn(CC(=O)O)c3ccccc23)C(=O)N1C [Example 1027] ({CH2CO}-Y[NMeA]NP[Dap](X86)L[Hyp]W[Dab](X86)[Trp(1-CH2COOH)][NMeNle][NMeNle]LCG-NH2; thioether N-14) |
| 7.5 | CCCC[C@H]1C(=O)N(C)[C@@H](CCCC)C(=O)N[C@@H](CC(C)C)C(=O)N[C@H](C(=O)NCC(N)=O)CSCC(=O)N[C@@H](Cc2ccc(O)cc2)C(=O)N(C)[C@@H](C)C(=O)N[C@@H](CC(N)=O)C(=O)N2CCC[C@H]2C(=O)N[C@@H](CN/C(=N/c2ccccc2)c2ccccc2)C(=O)N[C@@H](CC(C)C)C(=O)N2C[C@H](O)C[C@H]2C(=O)N[C@@H](Cc2c[nH]c3ccccc23)C(=O)N[C@@H](CCN/C(=N/c2ccccc2)c2ccccc2)C(=O)N[C@@H](Cc2cn(CC(=O)O)c3ccccc23)C(=O)N1C [Example 1017] ({CH2CO}-Y[NMeA]NP[X57]L[Hyp]W[X66][Trp(1-CH2COOH)][NMeNle][NMeNle]LCG-NH2; thioether N-14) |
| 3.3 | CCCC[C@H]1C(=O)N(C)[C@@H](CCCC)C(=O)N[C@@H](CC(C)C)C(=O)N[C@H](C(=O)NCC(N)=O)CSCC(=O)N[C@@H](Cc2ccc(O)cc2)C(=O)N(C)[C@@H](C)C(=O)N[C@@H](CC(N)=O)C(=O)N2CCC[C@H]2C(=O)N[C@@H](CNC(=S)Nc2cccc3c(Cl)c[nH]c23)C(=O)N[C@@H](CC(C)C)C(=O)N2C[C@H](O)C[C@H]2C(=O)N[C@@H](Cc2c[nH]c3ccccc23)C(=O)N[C@@H](CCNC(=S)Nc2cccc3c(Cl)c[nH]c23)C(=O)N[C@@H](Cc2cn(CC(=O)O)c3ccccc23)C(=O)N1C [Example 3019] ({CH2CO}-Y[NMeA]NP[Dap](X31)L[Hyp]W[Dab](X31)[Trp(1-CH2COOH)][NMeNle][NMeNle]LCG-NH2; thioether N-14) |
| 7.9 | CCCC[C@H]1C(=O)N(C)[C@@H](CCCC)C(=O)N[C@@H](CC(C)C)C(=O)N[C@H](C(=O)NCC(N)=O)CSCC(=O)N[C@@H](Cc2ccc(O)cc2)C(=O)N(C)[C@@H](C)C(=O)N[C@@H](CC(N)=O)C(=O)N2CCC[C@H]2C(=O)N[C@@H](CNC(=S)Nc2c(Cl)ccc(C)c2Cl)C(=O)N[C@@H](CC(C)C)C(=O)N2C[C@H](O)C[C@H]2C(=O)N[C@@H](Cc2c[nH]c3ccccc23)C(=O)N[C@@H](CCN)C(=O)N[C@@H](Cc2cn(CC(=O)O)c3ccccc23)C(=O)N1C [Example 1073] ({CH2CO}-Y[NMeA]NP[Dap](X28)L[Hyp]W[Dab][Trp(1-CH2COOH)][NMeNle][NMeNle]LCG-NH2; thioether N-14) |
